Data reported in PubChem BioAssay (NCI).
“And” between values parts separate entries of the source, which are not always exact repeats. Equal values may be shown once.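 All cell lines were grown in 96-well plates and treated with compound for 48 hours. Here, GI50 denotes the concentration required for 50% inhibition of growth. TGI denotes the concentration required for complete inhibition of growth.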

Key:
Assay in all cases: NCI tumour cell line growth inhibition, 48 h
K-562 leukemia = tested on: K-562 leukemia
SW-620 colon = tested on: SW-620 colon
SNB-19 CNS = tested on: SNB-19 CNS
SNB-75 CNS = tested on: SNB-75 CNS
RXF 393 renal = tested on: RXF 393 renal
OVCAR-8 ovarian = tested on: OVCAR-8 ovarian
OVCAR-5 ovarian = tested on: OVCAR-5 ovarian
HT29 colon = tested on: HT29 colon
HS 578T breast = tested on: HS 578T breast

| Compound | TGI (K-562 leukemia) | TGI (SW-620 colon) | TGI (SNB-19 CNS) | TGI (SNB-75 CNS) | TGI (RXF 393 renal) | TGI (OVCAR-8 ovarian) | TGI (OVCAR-5 ovarian) | TGI (HT29 colon) | GI50 (K-562 leukemia) | GI50 (HS 578T breast) | TGI (HS 578T breast) | GI50 (SW-620 colon) | GI50 (SNB-19 CNS) | GI50 (SNB-75 CNS) | GI50 (RXF 393 renal) | GI50 (OVCAR-8 ovarian) | GI50 (OVCAR-5 ovarian) | GI50 (HT29 colon) |
| --- | --- | --- | --- | --- | --- | --- | --- | --- | --- | --- | --- | --- | --- | --- | --- | --- | --- | --- |
| CCOC(OC(C)=O)[C@@H]1C=C[C@H](C)N(c2ccc([N+](=O)[O-])cc2)O1 (some centres undefined) | > 26.7 µM | 9.2 µM | 37.4 µM | 25.9 µM | 22.4 µM | 4.55 µM | 10.4 µM | 11.4 µM |  |  |  |  |  |  |  |  |  |  |
| CSc1ccc2c(cc1=O)[C@@H](NC(=O)c1cccc([N+](=O)[O-])c1)CCc1cc(O)c(O)c(O)c1-2 | 77.6 µM | 61.1 µM | > 100 µM | 86.1 µM | > 100 µM | > 100 µM | > 100 µM | > 100 µM |  |  |  |  |  |  |  |  |  |  |
| O=C(NCCCCN1CCOCC1)c1cc2ccccc2o1 | > 100 µM | > 100 µM | > 100 µM | > 100 µM | > 100 µM | > 100 µM | > 100 µM | > 100 µM | > 100 µM | > 100 µM | > 100 µM | > 100 µM | > 100 µM | > 100 µM | > 100 µM | > 100 µM | > 100 µM | > 100 µM |
| COc1cc2cc(OC(C)=O)c3cc4c(cc3c2c(OC)c1OC)OCO4 | > 100 µM | > 100 µM | > 100 µM | > 100 µM | > 100 µM | > 100 µM | > 100 µM | > 100 µM |  |  |  |  |  |  |  |  |  |  |
| C=CCC1(CN(C)C)CC/C(=C\c2ccc(OC)cc2)C1=O (centres undefined) | > 100 µM | > 100 µM | > 100 µM | > 100 µM | > 100 µM | > 100 µM | > 100 µM | > 100 µM |  |  |  |  |  |  |  |  |  |  |
| CC(=O)O[C@@H]1C2CCC3C(CC[C@@]4(C)C3CC[C@@H]4C(C)N(C)C)[C@@]2(C)CC[C@@H]1NC(=O)C=C(C)C (some centres undefined) | 3.15 µM | 3.48 µM | 18.7 µM | 9.31 µM | 3.21 µM | > 35.7 µM | 14.1 µM | 1.97 µM | 1.1 µM | 2.2 µM | 6.82 µM | 1.73 µM | 6.89 µM | 2.35 µM | 1.46 µM | 4.64 µM | 3.33 µM | 0.552 µM |
| COC(=O)[C@@H]1c2cc3c(c(O)c2[C@@H](OC2OC(C)C(OC)C(C)(OC)C2OC)C[C@]1(C)O)C(=O)c1c(O)cc2c(c1C3=O)O[C@H]1O[C@]2(C)[C@H](O)[C@@H](N(C)C)[C@@H]1O (some centres undefined) | 0.399 µM and 0.162 µM | 0.292 µM and 1.37 µM | 11.1 µM | 0.0522 µM and 0.0125 µM | 0.0749 µM and 0.0594 µM | 0.532 µM and 0.348 µM |  | 10.1 µM |  |  | 0.147 µM |  |  |  |  |  | 0.0651 µM |  |
| CC(=O)Nc1ccc(/C=C/C(=O)c2sc(-c3cccnc3)nc2C)cc1 | > 100 µM | > 100 µM |  | > 100 µM | > 100 µM | > 100 µM | > 100 µM | > 100 µM |  |  |  |  |  |  |  |  |  |  |
| CC1(C)OC2C(CCP(=O)(O)O)OC(c3nc(C(N)=O)cs3)C2O1 (centres undefined) | > 100 µM | > 100 µM | > 100 µM | > 100 µM | > 100 µM | > 100 µM | > 100 µM | > 100 µM |  |  |  |  |  |  |  |  |  |  |
| Nc1nc(/C=C\c2ccc([N+](=O)[O-])s2)nc(N2CCN(c3ccccc3)CC2)n1 | 49.5 µM | 27.9 µM | 77 µM | 60.5 µM | 37.2 µM | 52.7 µM | 98.3 µM | 70.4 µM | 15.3 µM | 0.54 µM | 14.6 µM | 6.3 µM | 30.5 µM | 33.1 µM | 18.6 µM | 22.2 µM | 40 µM | 27.5 µM |
| Cc1c(C)n(CCCN2CCN(C)CC2)c2ccc(Oc3cccc(C(=O)N4CCN(CCc5ccc(F)cc5)CC4)c3)cc12 |  | 3.28 µM | 3.31 µM | 2.85 µM | 3.06 µM |  | 3 µM |  |  | 2.05 µM | 4.51 µM | 1.77 µM | 1.75 µM | 1.39 µM | 1.59 µM |  | 1.58 µM |  |
| COC(=O)c1cc2c(=O)n(C)c3ccccc3n2c1C(=O)OC | > 100 µM | > 100 µM | > 100 µM | 37.3 µM | > 100 µM | > 100 µM | > 100 µM | > 100 µM |  |  |  |  |  |  |  |  |  |  |
| CCOC(=O)Cc1c(C)c2cc(C(=O)c3ccccc3)c(O)cc2oc1=O | 71.8 µM | > 100 µM | > 100 µM | 74.7 µM | > 100 µM | > 100 µM | > 100 µM | > 100 µM |  |  | 97.1 µM |  |  |  |  |  |  |  |
| CCCCCCCCCCCCCCCC1=NCC[N+]1(CCO)CCO | 2.82 µM | 3.54 µM | 15.9 µM | 16.6 µM | 6.28 µM | 8.36 µM | 4.15 µM | 9.13 µM | 1.36 µM | 2.51 µM | 7.17 µM | 1.76 µM | 3.8 µM | 2.47 µM | 2.47 µM | 3.03 µM | 1.97 µM | 2.57 µM |
| C/C=C(\C)c1cc(=O)c2c(C)cc3c(c2o1)C(=O)c1c(O)c(C2CC(C)(N(C)C)C(OC(C)=O)C(C)O2)cc(C2CC(N(C)C)C(O)C(C)O2)c1C3=O (centres undefined) | > 50 µM | > 27.7 µM | 10.9 µM | 7.33 µM | 1.27 µM | > 17.5 µM | 15.5 µM | 6.75 µM |  |  | 18.6 µM |  |  |  |  |  |  |  |
| CCN(CC)CCCNc1nccc2c(C)c3c(cc12)c1cnccc1n3C | 1.04 µM | 1.48 µM | 1.51 µM | 1.74 µM |  | 1.25 µM |  | 1.02 µM |  |  |  |  |  |  |  |  |  |  |
| COc1ccc(C(=O)C(CN(C)C)CN(C)C)cc1 |  | 3.98 µM | 33.1 µM | 26.5 µM | 3.8 µM | 22.4 µM | 30.8 µM | 5.77 µM |  | 17.3 µM | 56.3 µM | 1.78 µM | 16.3 µM | 11.4 µM | 1.55 µM | 3.14 µM | 12.6 µM | 2.3 µM |
| N#C/C(=C\c1cc(O)cc(O)c1)C(N)=O | > 100 µM | > 100 µM | > 100 µM | > 100 µM | > 100 µM | > 100 µM | > 100 µM | > 100 µM |  |  |  |  |  |  |  |  |  |  |
| O=C(CSc1nc2c(n1Nc1ccccc1)-c1ccccc1SC2)Nc1nc(-c2ccc(Cl)cc2)cs1 |  |  | 63.5 µM | 23.8 µM | 43.4 µM | > 100 µM | > 100 µM | > 100 µM |  | 6.35 µM | 78.7 µM |  | 15.3 µM | 9.23 µM | 15.8 µM | 6.42 µM | > 100 µM | > 100 µM |
| O=C1[C@H]2ON(c3ccccc3)C(c3ccc([N+](=O)[O-])cc3)[C@H]2C(=O)N1c1ccc(Cc2ccc(N3C(=O)[C@@H]4ON(c5ccccc5)C(c5ccc([N+](=O)[O-])cc5)[C@@H]4C3=O)cc2)cc1 (some centres undefined) | > 100 µM | > 100 µM | > 100 µM | > 100 µM | > 100 µM | > 100 µM | > 100 µM | > 100 µM |  |  |  |  |  |  |  |  |  |  |
| O=C(CN(/C=C/C(=O)C(F)(F)F)c1ccc(Cl)cc1)c1ccc(Cl)cc1 | 32.5 µM | 23.7 µM | 31.2 µM |  | 35.9 µM | 26.9 µM | 32.9 µM | > 100 µM | 5.93 µM | 13.8 µM | 42.5 µM | 10.2 µM | 11 µM |  | 10.2 µM | 10.8 µM | 16.1 µM | 7.41 µM |
| C=CCNC(=O)NCCCCC(NC(C)=O)C(=O)NCc1ccccc1 (centres undefined) | > 100 µM | > 100 µM | > 100 µM | > 100 µM | > 100 µM | > 100 µM | > 100 µM | > 100 µM |  |  |  |  |  |  |  |  |  |  |
| O=c1c2c(nc3n1CCS3)[nH]c1cc([N+](=O)[O-])ccc12 | > 100 µM | > 100 µM | > 100 µM | > 100 µM | > 100 µM | > 100 µM | > 100 µM | > 100 µM | > 100 µM | > 100 µM | > 100 µM | > 100 µM | > 100 µM | 57.1 µM | 92.6 µM | > 100 µM | > 100 µM | > 100 µM |
| COc1cc(/C=C2\CC3C4CC=C5C[C@@H](OC(C)=O)CC[C@]5(C)C4CC[C@]3(C)C2=O)ccc1OCCN1CCCCC1 (some centres undefined) | 3.31 µM | 7.32 µM | 43.3 µM | 56.9 µM | 14.6 µM | 28.2 µM | 7.42 µM | > 100 µM | 1.23 µM |  |  | 3.18 µM | 8.46 µM | 27.3 µM | 2.95 µM | 4.27 µM | 3.83 µM | 1.88 µM |
| OC(CNc1ccnc2cc(Cl)ccc12)CNc1ccnc2cc(Cl)ccc12 |  | 3.21 µM |  | 3.03 µM | 3.19 µM |  | 3.42 µM |  |  | 1.97 µM | 4.16 µM | 1.66 µM |  | 1.5 µM | 1.7 µM |  | 1.73 µM |  |
| NC(=O)NNC(=O)CCn1[nH]c(=O)c(Cl)c(Cl)c1=O | > 100 µM | > 100 µM | > 100 µM | > 100 µM | > 100 µM | > 100 µM | > 100 µM | > 100 µM |  |  |  |  |  |  |  |  |  |  |
